Values quoted from earlier work in patent publication US20160361357A1, “STABLE HIGH CONCENTRATION STRONTIUM COMPOUNDS AND FORMULATIONS FOR TOPICAL APPLICATION” (Cosmederm Bioscience, Inc., priority 2015, published 2016).

Experiments:
TCN = conditions: strontium mixed with 70% glycolic acid, pH 0.6 chemical peel
synaptotagmin-1 = synaptotagmin-1 (Homo sapiens, UniProt P21579); conditions: strontium substitutes for calcium; response to TCN activation
Chain of synaptotagmin-1 (P21579 whole entry, species assumed): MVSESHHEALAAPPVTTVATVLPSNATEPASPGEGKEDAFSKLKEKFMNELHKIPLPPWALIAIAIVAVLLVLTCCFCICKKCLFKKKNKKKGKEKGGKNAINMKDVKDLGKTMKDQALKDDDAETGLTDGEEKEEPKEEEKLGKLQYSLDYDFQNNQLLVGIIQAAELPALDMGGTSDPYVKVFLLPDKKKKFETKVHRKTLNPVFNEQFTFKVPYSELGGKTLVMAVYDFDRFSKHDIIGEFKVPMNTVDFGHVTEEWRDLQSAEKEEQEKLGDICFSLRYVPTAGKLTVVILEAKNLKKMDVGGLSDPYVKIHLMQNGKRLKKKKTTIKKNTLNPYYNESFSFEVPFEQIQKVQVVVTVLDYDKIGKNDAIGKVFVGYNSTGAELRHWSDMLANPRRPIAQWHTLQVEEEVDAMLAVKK

reduction of amplitude of synchronous neurotransmitter release (synaptotagmin-1): more than 90%
Structure (SMILES): [Sr+2] [strontium]
burning pain and stinging suppressed (TCN): ≥ 80%
